Results on one substance are retold here after patent EP1466611A1, “Use of HCG derived peptides in the treatment of iatrogenic diseases” (Biotempt B.V., priority 2003, dated 2004).

Ends that are not written are not given here.

The test system of this assay is NF-kB. The assay can be described thus: NF-kB translocation by EMSA on nuclear extracts of RAW 264.7 mouse macrophages, basal and LPS induced (second experiment). Format: cell-based. The conditions noted are these: RAW264.7 cells, LPS in combination with peptide, 30 minutes of incubation, peptide 1 microgr/ml or 1 mg/ml. The procedure:
RAW 264.7 mouse macrophages were cultured in DMEM, containing 10% or 2% FBS, penicillin, streptomycin and glutamine, at 37 °C, 5% CO2. […] After 30 minutes of incubation plates were centrifuged and cells were collected for nuclear extracts. Nuclear extracts and EMSA were prepared according to Schreiber et al. Cells were collected in a tube and centrifuged for 5 minutes at 2000 rpm (rounds per minute) at 4°C (Universal 30 RF, Hettich Zentrifuges). The pellet was washed with ice-cold Tris buffered saline (TBS pH 7.4) and resuspended in 400 μl of a hypotonic buffer A (10 mM HEPES pH 7.9, 10 mM KCl, 0.1 mM EDTA, 0.1 mM EGTA, 1 mM DTT, 0.5 mM PMSF and protease inhibitor cocktail (Complete^TM Mini, Roche) and left on ice for 15 minutes. Twenty five micro litre 10% NP-40 was added and the sample was centrifuged (2 minutes, 4000 rpm, 4°C). The supernatant (cytoplasmic fraction) was collected and stored at -70°C. […] The samples were left to shake at 4°C for at least 60 minutes. Finally the samples were centrifuged and the supernatant (nucleic fraction) was stored at -70°C. Bradford reagent (Sigma) was used to determine the final protein concentration in the extracts. […] Hundred pico mol sense and antisense oligo were annealed and labelled with […] using T4 polynucleotide kinase according to the manufacture's instructions (Promega, Madison, WI). […]
(In general: Mobility shift assays separate free from complexed probe on a gel.)

Regarding “circular LQGVLPALPQVVC (also: circular / cyclised, mode of ring closure not given here) [NFkappaB down-regulating peptide]”, the “LPS induced translocation of NF-kB” value is on record as “inhibition”.
